Biological target: Clostridium perfringens CGH (Clostridium perfringens, UniProt P54965)
Assay type: binding
Details: 0-500 μM, 37° C., 24 h, in-gel fluorescence

Sequence of Clostridium perfringens CGH (P54965 whole entry, looked up): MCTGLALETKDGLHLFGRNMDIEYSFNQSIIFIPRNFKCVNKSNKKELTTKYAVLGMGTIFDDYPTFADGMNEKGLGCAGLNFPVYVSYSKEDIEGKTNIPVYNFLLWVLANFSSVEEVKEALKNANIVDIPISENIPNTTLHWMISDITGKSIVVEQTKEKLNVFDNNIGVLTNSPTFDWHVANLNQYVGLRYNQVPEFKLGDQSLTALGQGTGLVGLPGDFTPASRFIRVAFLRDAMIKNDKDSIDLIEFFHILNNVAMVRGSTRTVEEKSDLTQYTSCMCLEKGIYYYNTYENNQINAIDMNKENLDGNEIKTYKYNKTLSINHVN

Compound	labeling of C. perfringens BSH
Cc1cccc(C)c1C(=O)OCC(=O)CC[C@@H](C)[C@H]1CC[C@H]2[C@@H]3[C@H](O)C[C@@H]4C[C@H](N=[N+]=[N-])CC[C@]4(C)[C@H]3CC[C@]12C [CDCA-AOMK, N3-CDCA-AOMK]	label Clostridium perfringens bile salt hydrolase (BSH)
Cc1cccc(C)c1C(=O)OCC(=O)CC[C@@H](C)[C@H]1CC[C@H]2[C@@H]3CC[C@@H]4C[C@H](N=[N+]=[N-])CC[C@]4(C)[C@H]3C[C@H](O)[C@]12C [DCA-AOMK, N3-DCA-AOMK]	label Clostridium perfringens bile salt hydrolase (BSH)

— patent publication US12215127B2 (priority 2020, dated 2025)
